Measured values taken from PMC7833800 (Journal of Virological Methods, 2020).
Read-outs that look alike come from different tables or passages of the source.

Target: SARS-CoV RTC (nsp12 in complex with nsp7L8) (Severe acute respiratory syndrome coronavirus, UniProt P0C6X7)
Experiment: biochemical

Structure (SMILES)	IC50	IC50 (IC50)
O=c1ccn([C@@H]2O[C@H](COP(=O)(O)OP(=O)(O)OP(=O)(O)O)C[C@H]2O)c(=O)[nH]1 [3’dUTP]	6.7 µM	
O=c1cc(-c2ccc(O)cc2)oc2cc(O)cc(O)c12 [Apigenin]		96 µM
O=c1cc(-c2ccc(Oc3c(O)cc4oc(-c5ccc(O)cc5)cc(=O)c4c3O)cc2)oc2cc(O)cc(O)c12 [Hinokiflavone]		0.95 µM
